As usually defined, the IC50 is the concentration that inhibits the measured activity by half. As usually defined, the inhibition is the change of the read-out against control, counted positive when it falls.

Marks after values point to notes of the source that are not given here.

The text below walks through data of article PMC6017736, “Indole-3-Carbonitriles as DYRK1A Inhibitors by Fragment-Based Drug Design” (Molecules : A Journal of Synthetic Chemistry and Natural …, 2018).

The target in one data set is T1, DYRK2 (Homo sapiens, UniProt Q92630).
T1 sequence (Q92630 1-601): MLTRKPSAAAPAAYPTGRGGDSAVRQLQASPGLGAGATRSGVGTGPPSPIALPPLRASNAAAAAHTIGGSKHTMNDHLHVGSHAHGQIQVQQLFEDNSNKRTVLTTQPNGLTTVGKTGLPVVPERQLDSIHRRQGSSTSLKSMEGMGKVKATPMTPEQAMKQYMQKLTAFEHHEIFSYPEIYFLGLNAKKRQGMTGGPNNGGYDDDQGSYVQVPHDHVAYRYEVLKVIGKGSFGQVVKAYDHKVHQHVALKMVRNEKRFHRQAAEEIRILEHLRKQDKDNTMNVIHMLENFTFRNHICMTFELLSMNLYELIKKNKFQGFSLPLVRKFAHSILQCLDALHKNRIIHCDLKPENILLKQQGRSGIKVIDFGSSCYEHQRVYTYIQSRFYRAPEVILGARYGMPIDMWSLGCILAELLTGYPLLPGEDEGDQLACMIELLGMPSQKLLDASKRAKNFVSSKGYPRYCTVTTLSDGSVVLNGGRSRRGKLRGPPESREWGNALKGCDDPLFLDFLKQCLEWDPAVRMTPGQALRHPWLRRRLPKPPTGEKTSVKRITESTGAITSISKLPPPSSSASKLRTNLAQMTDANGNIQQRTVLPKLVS
In words: Protein kinase assay ([γ-33P]-ATP, RS peptide substrate), DYRK2. The format is biochemical. Conditions: for IC50: 15 µM ATP; for inhibition at 10 µM: 10 µM compound, read-out: Inhibition at 10 µM DYRK2 (class symbol). How it is done:
(§1) DYRK1A, 1B, 2, 3 (human, recombinant, expressed in E. coli as GST fusion proteins) and CLK1, 2, 3, and 4 (mouse, recombinant, expressed in E. coli as GST fusion proteins) were assayed as described for GSK-3 in Buffer A (supplemented extemporaneously with 0.15 mg BSA/mL + 1 mM DTT) with 1 µg of RS peptide ([…]) as a substrate.

A further data set deals with CLK2 (Mus musculus, UniProt O35491). Put plainly: Protein kinase assay ([γ-33P]-ATP, RS peptide substrate), CLK2. It is filed as biochemical. To be noted: for IC50: 15 µM ATP. On the procedure: as §1
CLK2, sequence (O35491 whole entry): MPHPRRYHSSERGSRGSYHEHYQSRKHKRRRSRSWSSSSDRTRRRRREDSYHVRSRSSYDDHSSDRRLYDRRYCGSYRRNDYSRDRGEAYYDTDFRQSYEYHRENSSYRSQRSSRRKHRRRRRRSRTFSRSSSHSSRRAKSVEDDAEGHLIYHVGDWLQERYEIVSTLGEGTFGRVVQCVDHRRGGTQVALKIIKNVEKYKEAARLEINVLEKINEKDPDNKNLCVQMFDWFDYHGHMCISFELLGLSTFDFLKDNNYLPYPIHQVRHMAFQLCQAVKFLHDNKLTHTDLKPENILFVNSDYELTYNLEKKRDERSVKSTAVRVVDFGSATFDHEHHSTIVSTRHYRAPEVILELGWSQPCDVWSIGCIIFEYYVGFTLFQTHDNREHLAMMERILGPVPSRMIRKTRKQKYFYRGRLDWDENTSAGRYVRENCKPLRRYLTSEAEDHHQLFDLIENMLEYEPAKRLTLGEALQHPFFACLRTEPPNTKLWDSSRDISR
The target of a further data set is CLK3 (Mus musculus, UniProt O35492). Put plainly: Protein kinase assay ([γ-33P]-ATP, RS peptide substrate), CLK3. It is filed as biochemical. To be noted: for IC50: 15 µM ATP; for inhibition at 10 µM: 10 µM compound, read-out: Inhibition at 10 µM CLK3 (class symbol). On the procedure:
as §1

The target in a further data set is T2, DYRK3 (Homo sapiens, UniProt O43781).
T2 sequence (O43781 1-588): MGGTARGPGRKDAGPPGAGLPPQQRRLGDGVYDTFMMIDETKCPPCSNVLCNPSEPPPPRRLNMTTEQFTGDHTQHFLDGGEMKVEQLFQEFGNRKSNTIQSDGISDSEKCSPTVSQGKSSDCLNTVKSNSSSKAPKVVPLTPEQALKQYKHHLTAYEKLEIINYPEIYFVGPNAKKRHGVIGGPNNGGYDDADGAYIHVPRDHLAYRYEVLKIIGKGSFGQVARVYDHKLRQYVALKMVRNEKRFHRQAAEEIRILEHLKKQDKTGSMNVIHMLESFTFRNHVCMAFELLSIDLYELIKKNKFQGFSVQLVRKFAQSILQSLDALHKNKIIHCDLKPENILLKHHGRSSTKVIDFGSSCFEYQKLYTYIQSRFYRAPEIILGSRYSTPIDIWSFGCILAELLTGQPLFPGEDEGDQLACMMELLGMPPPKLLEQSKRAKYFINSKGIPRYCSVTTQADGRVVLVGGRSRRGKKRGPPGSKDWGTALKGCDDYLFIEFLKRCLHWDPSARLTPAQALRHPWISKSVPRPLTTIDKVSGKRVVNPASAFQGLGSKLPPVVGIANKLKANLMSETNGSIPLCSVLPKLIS
Put plainly: Protein kinase assay ([γ-33P]-ATP, RS peptide substrate), DYRK3. Conditions: for IC50: 15 µM ATP; for inhibition at 10 µM: 10 µM compound, read-out: Inhibition at 10 µM DYRK3 (class symbol). It is filed as biochemical. How it is done: as §1

The target in another data set is CLK4 (Mus musculus, UniProt O35493). In words: Protein kinase assay ([γ-33P]-ATP, RS peptide substrate), CLK4. To be noted: 15 µM ATP. The format is biochemical. How it is done: as §1
CLK4, sequence (O35493 whole entry): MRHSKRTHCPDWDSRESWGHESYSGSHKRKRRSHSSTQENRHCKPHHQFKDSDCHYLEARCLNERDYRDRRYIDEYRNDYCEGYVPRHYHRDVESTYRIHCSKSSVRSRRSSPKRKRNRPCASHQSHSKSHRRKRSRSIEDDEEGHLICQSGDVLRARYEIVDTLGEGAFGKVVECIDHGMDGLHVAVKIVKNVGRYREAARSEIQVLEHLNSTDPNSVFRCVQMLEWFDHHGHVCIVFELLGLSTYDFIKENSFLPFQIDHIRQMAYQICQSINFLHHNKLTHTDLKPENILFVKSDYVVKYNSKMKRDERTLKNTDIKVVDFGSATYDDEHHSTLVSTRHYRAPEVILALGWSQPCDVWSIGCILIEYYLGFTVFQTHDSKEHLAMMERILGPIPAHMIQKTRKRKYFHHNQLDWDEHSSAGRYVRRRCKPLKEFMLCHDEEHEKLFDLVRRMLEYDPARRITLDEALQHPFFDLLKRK
Another data set concerns the target CLK1 (Mus musculus, UniProt P22518). In words: Protein kinase assay ([γ-33P]-ATP, RS peptide substrate), CLK1. The format is biochemical. Conditions: 15 µM ATP. On the procedure:
as §1

The nature of data set [1]: Thermodynamic solubility, shake-flask method with HPLC quantification. To be noted: phosphate buffer pH 7.4, 25 °C. It is filed as physicochemical. How it is done:
For solubility assays an aqueous phosphate buffer pH 7.4 was used. The buffer was prepared by dissolving Na2HPO4 × 2 H2O (298 mg), KH2PO4 (19 mg) and NaCl (800 mg) in water (100 mL). The pH was adjusted to 7.4 by addition of hydrochloric acid. The thermodynamic solubility was determined using a shake-flask method with quantification by a HPLC method. The test compounds (500 µg) were incubated with aqueous phosphate buffer pH 7.4 (400 µL) in sealed Whatman MiniUniPrep vials (GE Healthcare, Freiburg, Germany). The mixtures were shaken at 25 °C and 400 rpm for 24–96 h (IKA KS 3000 ic control, IKA-Werke, Staufen, Germany). After 24 h, 48 h and 72 h, the mixtures were visually inspected for remaining solids and the solids were filtered off. The concentrations in the resulting saturated solutions were quantified by isocratic HPLC using calibration with external standard. If equilibrium was not reached after 72 h, solubility of a further sample was determined after 96 h. For calibration, a stock solution of 10 mM of the test compounds in DMSO was prepared and the stock solution was diluted with ACN to suitable concentrations. The AUC at the wavelength maxima was used for quantification.

Data set [2] in a line: Kinetic solubility, laser nephelometry. It is filed as physicochemical. To be noted: phosphate buffer pH 7.4, nephelometry. How it is done:
The kinetic solubility was determined using laser nephelometry. A stock solution of the test compounds in DMSO was prepared and further diluted with DMSO to achieve a dilution series of 8–12 solutions with different concentrations. The DMSO solutions (2 µL) were placed in a row on a 96-well plate and diluted with aqueous phosphate buffer pH 7.4 (198 µL). The well plate was scanned by a nephelometer (Nephelostar Plus, BMG Labtech, Ortenberg, Germany). Unsolved particles scatter the laser light which is detected by the nephelometer. The intensity of the scattered light is proportional to the particle concentration in the suspension. The intensity of the scattered light was plotted versus the concentration to obtain a kick off curve. The concentration at which the compounds began to precipitate was directly read out from the kick off curve.

The target in a further data set is DYRK1B (Homo sapiens, UniProt Q9Y463). In words: Protein kinase assay ([γ-33P]-ATP, RS peptide substrate), DYRK1B. To be noted: 15 µM ATP; read-out: IC50 DYRK 1B. The format is biochemical. On the procedure: as §1
DYRK1B, sequence (Q9Y463 whole entry): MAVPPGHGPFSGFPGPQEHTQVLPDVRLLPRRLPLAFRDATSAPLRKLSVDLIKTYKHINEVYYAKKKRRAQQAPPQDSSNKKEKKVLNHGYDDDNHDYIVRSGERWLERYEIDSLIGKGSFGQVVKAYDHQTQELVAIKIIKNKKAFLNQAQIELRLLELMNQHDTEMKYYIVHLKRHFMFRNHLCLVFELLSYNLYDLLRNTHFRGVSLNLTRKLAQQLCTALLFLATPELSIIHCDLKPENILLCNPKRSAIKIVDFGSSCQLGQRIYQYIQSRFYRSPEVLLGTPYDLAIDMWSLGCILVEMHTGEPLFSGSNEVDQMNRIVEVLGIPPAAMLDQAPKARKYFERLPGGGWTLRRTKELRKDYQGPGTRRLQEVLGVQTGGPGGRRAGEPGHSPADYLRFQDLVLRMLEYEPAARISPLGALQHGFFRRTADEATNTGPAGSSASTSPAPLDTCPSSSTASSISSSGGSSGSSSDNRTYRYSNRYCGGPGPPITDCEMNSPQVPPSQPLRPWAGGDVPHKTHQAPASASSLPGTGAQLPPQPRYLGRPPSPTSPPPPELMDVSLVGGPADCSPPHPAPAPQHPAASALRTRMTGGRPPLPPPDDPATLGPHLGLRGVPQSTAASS
Data set [3] concerns the target T3, DYRK1A (Homo sapiens, UniProt Q13627). In words: Ligand-lipophilicity efficiency (pIC50 minus calculated logP). How it is done: All new compounds were evaluated based on their physicochemical properties regarding Lipinski’s rule of five and the ligand-lipophilicity efficiency (LLE). Both concepts are used to assess the druglikeness of drug development candidates. […] LLE is calculated from pIC50 minus calculated logP [46].

The target of data set [4] is T3, DYRK1A. In words: Protein kinase assay ([γ-33P]-ATP, RS peptide substrate), DYRK1A. It is filed as biochemical. To be noted: 15 µM ATP; read-out: IC50 DYRK 1A.
A further data set deals with GSK-3. In words: Protein kinase assay ([γ-33P]-ATP, GS-1 substrate), GSK-3. To be noted: for IC50: read-out: IC50 GSK3, 15 µM ATP.
Where [5] appears, read: pIC50 (DYRK1A) minus calculated logP.

CLK3, sequence (O35492 whole entry): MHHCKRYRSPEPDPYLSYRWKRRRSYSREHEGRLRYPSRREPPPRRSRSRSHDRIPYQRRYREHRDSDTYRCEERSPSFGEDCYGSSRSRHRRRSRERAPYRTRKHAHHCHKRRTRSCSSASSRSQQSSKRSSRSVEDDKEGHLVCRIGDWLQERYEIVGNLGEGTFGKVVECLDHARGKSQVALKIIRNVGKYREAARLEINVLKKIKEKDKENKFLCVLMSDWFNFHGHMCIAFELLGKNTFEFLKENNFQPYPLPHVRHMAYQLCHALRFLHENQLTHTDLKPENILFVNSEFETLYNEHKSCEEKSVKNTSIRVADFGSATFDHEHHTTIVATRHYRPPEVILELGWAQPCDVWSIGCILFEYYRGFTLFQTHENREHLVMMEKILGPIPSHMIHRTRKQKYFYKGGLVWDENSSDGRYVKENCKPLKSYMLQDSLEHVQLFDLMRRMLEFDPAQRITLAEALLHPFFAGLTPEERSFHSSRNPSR
CLK1, sequence (P22518 whole entry): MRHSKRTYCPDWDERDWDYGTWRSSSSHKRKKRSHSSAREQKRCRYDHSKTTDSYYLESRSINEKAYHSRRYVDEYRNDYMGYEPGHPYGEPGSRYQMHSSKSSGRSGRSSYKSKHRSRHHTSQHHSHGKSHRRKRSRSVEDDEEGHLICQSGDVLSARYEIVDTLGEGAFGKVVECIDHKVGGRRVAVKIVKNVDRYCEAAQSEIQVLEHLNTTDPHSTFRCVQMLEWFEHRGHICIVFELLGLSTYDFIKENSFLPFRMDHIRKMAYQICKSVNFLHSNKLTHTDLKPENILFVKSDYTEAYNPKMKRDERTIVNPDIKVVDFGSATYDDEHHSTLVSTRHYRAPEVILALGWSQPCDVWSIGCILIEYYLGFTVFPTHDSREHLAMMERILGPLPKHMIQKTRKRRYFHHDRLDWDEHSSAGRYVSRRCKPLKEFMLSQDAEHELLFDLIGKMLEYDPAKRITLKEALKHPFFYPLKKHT
Procedure for GSK-3: First, the kinases were incubated with 10 µM solutions of the compounds and the residual activities compared to controls were measured.
Controls were performed with appropriate dilutions of DMSO. The GS-1 and RS peptide substrates were obtained from Proteogenix (Oberhausbergen, France).
After 30 min incubation at 30 °C, the reaction was stopped by harvesting onto P81 phosphocellulose supernatant (Whatman) using a FilterMate harvester (Packard) and washing in 1% phosphoric acid. Scintillation fluid was added and the radioactivity measured in a Packard counter [52].
All data points for construction of dose response curves were recorded in triplicate.

`N#Cc1c[nH]c2c(Br)cccc12` [Compound 6b, 7-Bromo-1H-indole-3-carbonitrile]: the IC50 against DYRK2 was over 10 µM; on CLK2, over 10 µM; on CLK3, over 10 µM; against DYRK3 it was over 10 µM; on CLK4, 4000 nM; at CLK1 it was 2900 nM. At DYRK1B, the IC50 stood at 5900 nM. Further, in data set [1], the “Sexp., therm., pH 7.4” value is 136 ± 11 µM. Further, in data set [2], the “Sexp., kin., pH 7.4” value is listed as 142 ± 14 µM.

Consider `N#Cc1c[nH]c2c(I)cccc12` [Compound 6c, 7-Iodo-1H-indole-3-carbonitrile], for which the IC50 was 8 µM against DYRK2; 8 µM on CLK2; over 10 µM against CLK3; over 10 µM against DYRK3; 1800 nM at CLK4; 1900 nM against CLK1. The IC50 on DYRK1B was 1800 nM. Besides, the “Sexp., therm., pH 7.4” value in data set [1] is 45.2 (44.8–45.6) µM. The “Sexp., kin., pH 7.4” value in data set [2] was 261 (254–267) µM.

Regarding `N#Cc1c(-c2ccccc2)[nH]c2c(Br)cccc12` [Compound 6g, 7-Bromo-2-phenyl-1H-indole-3-carbonitrile], the IC50 was over 10 µM against DYRK2; 0.433 µM against CLK2; over 10 µM against CLK3; over 10 µM against DYRK3; 33 nM on CLK4; 67 nM against CLK1. Moreover, the values for the IC50 at DYRK1A [4] and on DYRK1B were 25 nM and 120 nM, respectively. In addition, in [1], the “Sexp., therm., pH 7.4” value was under 0.5 µM. The “Sexp., kin., pH 7.4” value in data set [2] stood at 14.8 ± 0.26 µM. For the same compound, the LLE at DYRK1A [3] (Table S2) and on DYRK1A [3] (setting [5]) was 3.34 in each case.

`N#Cc1c(-c2cccnc2)[nH]c2c(I)cccc12` [Compound 6p, 7-Iodo-2-(pyridin-3-yl)-1H-indole-3-carbonitrile]: the inhibition at 10 µM on DYRK2, at CLK3 and on DYRK3 was under 20% each time. Moreover, the IC50 against CLK2 is over 10 µM; on CLK4 it was over 10000 nM; at CLK1, 200 nM; on DYRK1A [4], 80 nM; on DYRK1B, 300 nM. Moreover, the “Sexp., kin., pH 7.4” value in [2] was 10.0 (7.21–12.9) µM. In addition, the LLE on DYRK1A [3] (Table S2) and on DYRK1A [3] (setting [5]) was 3.89 in each case.

Consider `CC(C)c1[nH]c2c(I)cccc2c1C#N` [Compound 6q, 7-Iodo-2-isopropyl-1H-indole-3-carbonitrile], for which the IC50 is over 10 µM on DYRK2; 0.7 µM against CLK2; over 10 µM on CLK3; over 10 µM at DYRK3; 100 nM at CLK4; 100 nM at CLK1. Moreover, the concentration for half-maximal inhibition (IC50) on GSK-3 came out at 1300 nM; at DYRK1A [4], 280 nM; at DYRK1B it was 530 nM. For the same compound, on DYRK1A [3] (Table S2), the LLE is recorded as 2.61.

As to `Cn1cc(C#N)c2cccc(Br)c21` [Compound 13d, 7-Bromo-1-methyl-1H-indole-3-carbonitrile], the IC50 on DYRK2 is over 10 µM; against CLK2 it was over 10 µM; at CLK3 it was over 10 µM; against DYRK3, over 10 µM; at CLK4 it was over 10000 nM; against CLK1 it was 3330 nM. Moreover, the IC50 at GSK-3 was over 10000 nM; on DYRK1A [4] it was 1900 nM; on DYRK1B, over 10000 nM. The LLE at DYRK1A [3] (Table S2) is recorded as 2.80.

With `Cn1c(-c2ccccc2)c(C#N)c2cccc(Br)c21` [Compound 13e, 7-Bromo-1-methyl-2-phenyl-1H-indole-3-carbonitrile], the inhibition at 10 µM on DYRK2 is under 20%; at CLK2 (10 µM compound, read-out: Inhibition at 10 µM CLK2 (class symbol)) it was under 20%; at CLK3, under 20%; on DYRK3, under 20%. In addition, the IC50 on CLK4 was 1000 nM; on CLK1, over 10000 nM; at DYRK1A [4], 2300 nM; at DYRK1B, 10000 nM. In addition, the LLE on DYRK1A [3] (Table S2) is 1.15. For the same compound, the “Inhibition at 10 µM GSK3 (class symbol)” value in the data set with GSK-3 (10 µM compound) is reported as “- (-: less than 20% inhibition at 10 µM, IC50 was not determined)”.

`N#Cc1c(CC(O)CO)[nH]c2c(Cl)cccc12` (centres unmarked) [Compound 14, 7-Chloro-2-(2,3-dihydroxypropyl)-1H-indole-3-carbonitrile]: the inhibition at 10 µM at DYRK2, on CLK3 and on DYRK3 was under 20% each time. In addition, the IC50 against CLK2 came to 10 µM; against CLK4, 2000 nM; on CLK1 it was 2000 nM; at GSK-3, 2000 nM; on DYRK1A [4], 2000 nM; on DYRK1B, 4200 nM. Moreover, the “Sexp., therm., pH 7.4” value in data set [1] is reported as 3447 ± 182 ^c µM. The LLE on DYRK1A [3] (Table S2) and at DYRK1A [3] (setting [5]) was 4.59 in each case.
